Test results reported in US4342827A, “Production of enzymes” (Public Health Laboratory Service, Center for Applied …, priority 1978, dated 1982).

What follows are compounds tested against T1, glycerol dehydrogenase (GDH) (Geobacillus stearothermophilus, UniProt P32816) (assay: GDH assay against analogous substrates, activities (Vmax) relative to glycerol). Conditions: 30° C., pH 8.5; substrate instead of glycerol.
T1 construct: crude, partially or highly purified (DEAE-cellulose, triazine dye-agarose, gel filtration)
T1 sequence (P32816 whole entry): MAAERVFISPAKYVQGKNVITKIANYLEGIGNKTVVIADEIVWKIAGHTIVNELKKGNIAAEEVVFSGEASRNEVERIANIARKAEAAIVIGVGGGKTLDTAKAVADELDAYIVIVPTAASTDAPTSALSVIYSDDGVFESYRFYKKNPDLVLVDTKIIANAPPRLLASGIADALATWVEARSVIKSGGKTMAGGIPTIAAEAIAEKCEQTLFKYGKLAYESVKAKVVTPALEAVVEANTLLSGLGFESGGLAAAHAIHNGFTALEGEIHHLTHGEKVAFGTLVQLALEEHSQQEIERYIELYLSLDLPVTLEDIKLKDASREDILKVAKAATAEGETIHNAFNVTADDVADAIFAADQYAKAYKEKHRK
Type: biochemical, Bacillus stearothermophilus
Experimental: The thermostable GDH enzymes produced from the strains of Bacillus stearothermophilus described above typically have a structure composed of four identical or similar sub-units each of molecular weight about 60,000 giving an overall molecular weight of about 240,000±30,000 daltons. When homogeneous and tested by the assay method described below they have a specific activity of at least 5 and normally about 10 to 30 units per mg protein at 30° C. and pH 8.5. When tested under similar conditions against analogous substrates the activities (Vmax) relative to glycerol (100%) were:
Assays for GDH activity were carried out by the following procedure and all references to activities in the present description and claims refer to activity as measured by this assay.
(i) 0.25 M Triethanolamine-HCl (pH 8.5).
(iii) 10 mg/ml NAD (nicotinamide adenine dinucleotide)
600 μl, H2 O, 200 μl triethanolamine-HCl solution, 25 μl NAD solution and 5 to 200 μl of the sample to be assayed were mixed in a cuvette (pathlength 1 cm.). After pre-equilibration to attain 30° C., 100 μl of glycerol solution was added to initiate the reaction.
The reduction of NAD was followed by spectrophotometric means, by observing the absorbance of the solution at 340 nm. Either a water or reagent blank was used, and units were expressed as μmoles of NADH formed per minute at 30° C. with dilution to give ΔOD340 in the range 0.06 to 0.12 per minute.
In the case of `OCCC(O)S` (stereo not drawn) [3-mercapto-propane1, 3 diol], the “activity (Vmax) relative to glycerol (100%)” value was 49%.
For `O=C(CO)CO` [dihydroxyacetone], the “activity (Vmax) relative to glycerol (100%)” value was < 10%.
With `O=C(O)C(O)CO` (stereo not drawn) [glyceric acid] the “activity (Vmax) relative to glycerol (100%)” value was < 10%.
With `CC(O)CO` (stereo not drawn) [propane1, 2 diol] the “activity (Vmax) relative to glycerol (100%)” value was 165%.
With `OCCCO` [propane1, 3diol] the “activity (Vmax) relative to glycerol (100%)” value was 16%.

Same assay, conditions: high concentrations
With `N` [NH4^+ ions] the “effect on GDH activity” value was “inhibited”.
